Test results published in patent publication US20060178415A1, “Azole derivatives as antifungal agents” (priority 2002, published 2006).
Converted amounts (≈) assume the structure as drawn. Where two headings read alike, the source gives them in different places.

Columns and labels:
A. fum. = assay: In vitro antifungal MIC, NCCLS M38P broth method in RPMI 1640/MOPS pH 7; type: cell-based, Aspergillus fumigatus; details: for MIC: Aspergillus fumigatus
Description: The in vitro evaluation of the antifungal activity of the compound of this invention (as shown in Table I) can be performed by determining the minimum inhibitory concentration (MIC) which is the concentration of the test compound in Rosewell Park Memorial Institute (RPMI) 1640 liquid medium buffered with 3-(Morpholino)propane sulfonic acid (MOPS) to pH 7, at which there is significant inhibition of the particular fungi. In practice the National Committee for Clinical Laboratory Standard (NCCLS) M27A document for Candida and Cryptococcus and M38P for Aspergillus was used to determine the MIC and readings recorded only when the Quality Control results fell into the acceptable range. After MIC results had been recorded, 100 μL from each of the well showing no growth was spread over Sabouraud Dextrose Agar (SDA) to determine the minimum fungicidal concentration (MFC).

[1] = biological target: T1, ergosterol P^450DM in C. albicans lysates (Candida albicans, UniProt P10613); details: cited from earlier work
T1 construct: host or cells: C. albicans lysate

[2] = test system: ergosterol P^450DM in A. fumigatus lysates; details: cited from earlier work
[3] = pH 7, read-out: MIC (A. fum.) 1008
[4] = pH 7, read-out: MIC (A. fum.) Si-l
[5] = A. fumigatus strain 1008, RPMI 1640, MOPS pH 7, read-out: MIC (A. fum.) 1008
[6] = A. fumigatus strain Si-l, RPMI 1640, MOPS pH 7, read-out: MIC (A. fum.) Si-l
[7] = A. fumigatus strain 1008, RPMI 1640, MOPS pH 7
[8] = A. fumigatus strain Si-l, RPMI 1640, MOPS pH 7

T1 sequence (P10613 whole entry): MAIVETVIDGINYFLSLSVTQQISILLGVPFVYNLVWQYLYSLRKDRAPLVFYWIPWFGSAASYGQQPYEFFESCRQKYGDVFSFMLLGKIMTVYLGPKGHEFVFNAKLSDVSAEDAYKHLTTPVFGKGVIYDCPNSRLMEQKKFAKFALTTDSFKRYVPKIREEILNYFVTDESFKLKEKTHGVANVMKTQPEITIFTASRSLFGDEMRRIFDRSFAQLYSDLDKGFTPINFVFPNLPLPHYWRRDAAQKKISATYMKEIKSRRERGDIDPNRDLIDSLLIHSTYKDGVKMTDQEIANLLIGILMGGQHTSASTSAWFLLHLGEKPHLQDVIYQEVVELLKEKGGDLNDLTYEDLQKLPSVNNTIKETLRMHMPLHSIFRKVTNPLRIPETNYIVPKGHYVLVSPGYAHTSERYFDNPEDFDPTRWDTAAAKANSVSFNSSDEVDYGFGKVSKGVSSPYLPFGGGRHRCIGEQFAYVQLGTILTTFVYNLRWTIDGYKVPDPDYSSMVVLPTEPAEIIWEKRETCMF

MIC (A. fum.; [5]) [µg/mL] | MIC (A. fum.; [6]) [µg/mL] | Compound | MIC (A. fum.) 1008 (A. fum.; [7]) [µg/mL] | MIC (A. fum.) Si-l (A. fum.; [8]) [µg/mL] | also measured
 |  | C[C@@H](N(N)C(=S)Nc1cnc2ccccc2c1)[C@](O)(Cn1cncn1)c1ccc(F)cc1F [Compound No. 39, 2-[(1R,2R)-2-(2,4-Difluorophenyl)-2-hydroxy-1-methyl-3-(1H-1,2,4-triazol-1-yl)propyl]-4-[quinolin-3-yl]thiosemicarbazide] |  |  | MIC (A. fum.; [3]): 16 µg/mL (≈ 34.1 µM); MIC (A. fum.; [4]): 4 µg/mL (≈ 8.52 µM)
 |  | C[C@@H](n1ncn(-c2ccc(O)cc2)c1=S)[C@](O)(Cn1cncn1)c1ccc(F)cc1F [Compound No. 41, 2-[(1R,2R)-2-(2,4-difluorophenyl)-2-hydroxy-1-methyl-3-(1,2,4-triazol-1-yl)propyl]-4-[4-hydroxyphenyl]-(2H,4H)-1,2,4-triazol-3-thione] |  |  | MIC (A. fum.; [3]): > 16 µg/mL; MIC (A. fum.; [4]): > 16 µg/mL
0.25 (≈ 0.448 µM) | 0.125 (≈ 0.224 µM) | C[C@@H](n1ncn(-c2ccc(OCC(F)(F)C(F)F)cc2)c1=S)[C@](O)(Cn1cncn1)c1ccc(F)cc1F [Compound No. 42, 2-[(1R,2R)-2-(2,4-difluorophenyl)-2-hydroxy-1-methyl-3-(1,2,4-triazol-1-yl)propyl]-4-[4-(2,2,3,3-tetrafluoropropoxy)phenyl]-(2H,4H)-1,2,4-triazol-3-thione] |  |  | 
 |  | C[C@@H](n1ncn(-c2ccc([N+](=O)[O-])cc2)c1=S)[C@](O)(Cn1cncn1)c1ccc(F)cc1F [Compound No. 43, 2-[(1R,2R)-2-(2,4-difluorophenyl)-2-hydroxy-1-methyl-3-(1,2,4-triazol-1-yl)propyl]-4-[4-nitrophenyl]-(2H,4H)-1,2,4-triazol-3-thione] |  |  | MIC (A. fum.; [3]): 4 µg/mL (≈ 8.45 µM); MIC (A. fum.; [4]): 2 µg/mL (≈ 4.22 µM)
 |  | C[C@@H](n1ncn(-c2ccc(-n3ncnn3)cc2)c1=S)[C@](O)(Cn1cncn1)c1ccc(F)cc1F [Compound No. 44] | 2 (≈ 4.03 µM) | 2 (≈ 4.03 µM) | 
1 (≈ 2.01 µM) | 0.5 (≈ 1.01 µM) | C[C@@H](n1ncn(-c2ccc(C(F)(F)F)cc2)c1=S)[C@](O)(Cn1cncn1)c1ccc(F)cc1F [Compound No. 45, 2-[(1R,2R)-2-(2,4-difluorophenyl)-2-hydroxy-1-methyl-3-(1,2,4-triazol-1-yl)propyl]-4-[4-trifluoromethylphenyl]-(2H,4H)-1,2,4-triazol-3-thione] |  |  | 
2 (≈ 3.9 µM) | 0.5 (≈ 0.976 µM) | C[C@@H](n1ncn(-c2ccc(OC(F)(F)F)cc2)c1=S)[C@](O)(Cn1cncn1)c1ccc(F)cc1F [Compound No. 46, 2-[(1R,2R)-2-(2,4-Difluorophenyl)-2-hydroxy-1-methyl-3-(1H-1,2,4-triazol-1-yl)propyl]-4-[4-trifluoromethoxyphenyl]-(2H,4H)-1,2,4-triazol-3-thione] |  |  | 
 |  | COC(=O)C(c1ccccc1)n1cnn([C@H](C)[C@](O)(Cn2cncn2)c2ccc(F)cc2F)c1=S (some centres unmarked) [Compound No. 50] | >16 | >16 | 
 |  | COC(=O)C(CC(C)C)n1cnn([C@H](C)[C@](O)(Cn2cncn2)c2ccc(F)cc2F)c1=S (stereo partly drawn) [Compound No. 51, Methyl-2-isobutyl-2-[[(1R,2R)-2-(2,4-difluorophenyl)-2-hydroxy-1-methyl-3-(1H-1,2,4-triaolyl)propyl]-(2H,4H)-1,2,4-triazol-3-thion-4-yl]acetate] | >16 | <16 | 
 |  | COC(=O)C(CCSC)n1cnn([C@H](C)[C@](O)(Cn2cncn2)c2ccc(F)cc2F)c1=S (stereo partly drawn) [Compound No. 52, Methyl-2-methylthioethyl-2-[[(1R,2R)-2-(2,4-difluorophenyl)-2-hydroxy-1-methyl-3-(1H-1,2,4-triaolyl)propyl]-(2H,4H)-1,2,4-triazol-3-thion-4-yl]acetate] | >16 | >16 | 
 |  | C[C@@H](n1ncn(Cc2ccco2)c1=S)[C@](O)(Cn1cncn1)c1ccc(F)cc1F [Compound No. 53, 2-[(1R,2R)-2-(2,4-Difluorophenyl)-2-hydroxy-1-methyl-3-(1H-1,2,4-triazol-1-yl)propyl]-4-[2-furanmethyl]-(2H,4H)-1,2,4-triazol-3-thione] | 8 (≈ 18.5 µM) | 4 (≈ 9.25 µM) | 
4 (≈ 8.62 µM) | 2 (≈ 4.31 µM) | C[C@@H](n1ncn(-c2ccc(Cl)cn2)c1=S)[C@](O)(Cn1cncn1)c1ccc(F)cc1F [Compound No. 55, 2-[(1R,2R)-2-(2,4-Difluorophenyl)-2-hydroxy-1-methyl-3-(1H-1,2,4-triazol-1-yl)propyl]-4-[3-chloropyridin-6-yl]-(2H,4H)-1,2,4-triazol-3-thione] |  |  | 
 |  | C[C@@H](c1ncncc1F)[C@](O)(Cn1cncn1)c1ccc(F)cc1F [Voriconazole] |  |  | fold greater inhibition of ergosterol P450DM compared to fluconazole [1]: 1.6 fold; fold greater inhibition of ergosterol P450DM compared to fluconazole [2]: 160 fold
